# Tests used:
# [1] = target: T1, 5-hLOX (Homo sapiens, UniProt P09917); assay: In vitro 5-hLOX enzyme assay (H2DCFDA fluorescence); format: biochemical; conditions: kinetic assays, inhibitor 0–1 μM, substrate 0.2–5 μM
# T1 construct: purchased Cayman Chemicals Inc. (Ann Arbor, MI, USA)
# T1 sequence (P09917 1-674): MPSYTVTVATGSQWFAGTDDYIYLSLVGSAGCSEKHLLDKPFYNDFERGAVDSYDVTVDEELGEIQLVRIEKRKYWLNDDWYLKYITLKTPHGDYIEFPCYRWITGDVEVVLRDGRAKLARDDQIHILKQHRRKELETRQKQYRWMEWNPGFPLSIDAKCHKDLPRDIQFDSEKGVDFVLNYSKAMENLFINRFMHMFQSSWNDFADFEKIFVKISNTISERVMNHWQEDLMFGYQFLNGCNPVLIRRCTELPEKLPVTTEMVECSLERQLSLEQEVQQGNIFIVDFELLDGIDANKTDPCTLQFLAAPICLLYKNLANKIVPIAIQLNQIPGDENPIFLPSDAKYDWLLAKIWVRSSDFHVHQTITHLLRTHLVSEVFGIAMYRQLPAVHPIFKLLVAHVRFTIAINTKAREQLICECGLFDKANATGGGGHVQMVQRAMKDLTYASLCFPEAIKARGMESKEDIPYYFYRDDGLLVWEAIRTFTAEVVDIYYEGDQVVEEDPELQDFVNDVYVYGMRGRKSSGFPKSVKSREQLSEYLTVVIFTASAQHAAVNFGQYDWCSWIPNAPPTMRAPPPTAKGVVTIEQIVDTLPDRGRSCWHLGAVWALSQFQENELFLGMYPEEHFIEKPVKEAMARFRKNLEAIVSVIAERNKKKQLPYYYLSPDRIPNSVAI
# [2] = tested on: MEF primary mouse embryonic fibroblast; assay: In vitro cytotoxic activity, CyQuant cell viability, 72 h; format: cell-based; conditions: MEF (non-cancerous cells); 72 h
# Method: The used cell lines include MDA-MB-231 human breast adenocarcinoma cells, B16-F10 mouse metastatic melanoma cells and MEF primary mouse embryonic fibroblast. Cells were maintained in a DMEM high glucose medium (Mediatech, Manassas, VA, USA) supplemented with 10% (MDA-MB-231 and B16-F10) or 15% (MEF) heat-inactivated fetal bovine serum (HyClone Laboratories, South Logan, USA), 100 IU ml^-1 penicillin and 100 μg ml^-1 streptomycin while maintained at 37°C in a 5% CO2 humidified atmosphere. Cell viability was measured using a CyQuant® Direct Cell Proliferation Assay Kit (Life Technologies, Grand Island, NY, USA) following the manufacturer’s instruction. Briefly, 5,000 cells per well were seeded onto a flat-bottom 96-well plate in 200 μL final volume. Six hours after seeding, the culture medium was replaced by the medium containing the tested compounds at 0.01 to 100 µM concentrations in DMSO (0.1% final concentration) during 72 h. Untreated cells (medium containing only 0.1% DMSO) were used as controls. At the end of the incubation, 100 μL of culture medium was removed from each well and replaced by detection reagent solution provided by the kit (which is a 1:5 mixture of the reagent CyQUANT®, direct nucleic acid stain and the reagent labeled as CyQUANT® direct background suppressor I). Cells were incubated for 1 h and fluorescence emission was measured at 535 nm with excitation at 480 nm in a microplate reader (Infinite 200 PRO, Tecan, Grödig, Austria). At least four independent experiments were performed for each concentration. The results from each experiment were transformed into percentage of controls and the LC50 values were graphically obtained from the dose-response curves. The LC50 value was obtained adjusting the dose-response curve to sigmoidal curves (variable slope) using the GraphPad Prisma 6.0 software ([GraphPad-Software, 2015]).
Ki [1],SMILES,LC50 ± SD [2]
50 nM,"COc1cc(O)c2c(c1)O[C@H](c1ccc(O)c(O)c1)CC2=O [Compound 2, (-)-(2S)-5,3’,4’-trihydroxy-7-methoxyflavanone]",
,"COc1cc(O)c2c(c1)O[C@H](c1ccc(O)cc1)CC2=O [Compound 1, (-)-(2S)-5,4’-dihydroxy-7-methoxyflavanone]",no significant cytotoxic activity

# From paper PMC7399337, “Biological Properties and Absolute Configuration of Flavanones From Calceolaria thyrsiflora Graham” (Frontiers in Pharmacology, 2020)
